The text below walks through data of paper PMC6380468, “Investigations on small molecule inhibitors targeting the histone H3K4 tri-methyllysine binding PHD-finger of JmjC histone demethylases” (Bioorganic & Medicinal Chemistry, 2018).

Where “and” joins values, the source holds several entries; their conditions need not be identical. Equal entries are not always repeated.

The target of assay [1] is T1, His-KDM5A(PHD3) (Homo sapiens, UniProt P29375).
T1 construct: KDM5A(PHD3) (1542 – 1660), encoded by a pGTLV2 vector; made in house; host or cells: E. coli Rosetta 2(DE3)pLysS
T1 sequence (P29375 1542-1660): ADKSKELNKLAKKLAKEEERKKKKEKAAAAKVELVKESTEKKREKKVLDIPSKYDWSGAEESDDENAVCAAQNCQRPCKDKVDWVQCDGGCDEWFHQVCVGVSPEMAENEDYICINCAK
As to the kind of experiment: AlphaScreen displacement assay, H3K4me3-Bn from His-KDM5A(PHD3). In kind it is binding. On the procedure: AlphaScreen is a homogenous bead-based assay used to study protein-protein interactions.[28] […] AlphaScreen beads were then added and incubated for 1 h. Changes in the AlphaScreen signals with increasing inhibitor concentrations were then measured to quantify the level of KDM5A(PHD3) and H3K4me3 binding, and IC50 values were determined.
His-tagged PHD finger constructs and H3K4me3-Bn peptides were diluted into AlphaScreen assay buffer (50mM HEPES, 150mM NaCl, 0.1% BSA, 0.01% Tween20, pH 7.5). An 8-point 1:2 dilution series was made for both protein and peptide. With a multichannel pipette (LTS P10), 5 µL protein was dispensed into 8 columns of a 384-well plate, followed by 5 µL of 4% DMSO in AlphaScreen assay buffer. The mixture was incubated at room temperature for 15 minutes, followed by dispensing 5 µL peptide across 8 rows of the 384-well plate, forming a cross-gradient of protein and peptide. The contents were incubated for 30 minutes at room temperature, followed by the addition of 5 µL of a mixture of AlphaScreen Streptavidin donor beads and Nickel Chelate acceptor beads in AlphaScreen assay buffer (20 µg/mL final). The samples were incubated for 60-120 minutes at room temperature in the dark, followed by measurement of luminescence on a BMG Labtech Pherastar plate reader (Software Ver. 5.30 R3, Firmware Ver. 1.21). The data was plotted in Prism Ver 7.01 (GraphPad Software, Inc.) and fitted to a linear model in order to determine the optimal concentration of protein and peptide within the linear signal range for each reader domain.
(§1) For peptide displacement assays, 5 µL of the inhibitor dilution series (at a concentration of 4% DMSO in AlphaScreen assay buffer) was pre-incubated with 5 µL of the protein at RT for 15 minutes. Peptide solution (5 µL) was added and incubated for 30 minutes at RT, followed by the addition of 5 µL of a mixture of AlphaScreen Streptavidin donor beads and Nickel Chelate acceptor beads in AlphaScreen assay buffer (20 µg/mL final). The contents were incubated for 60-120 minutes at RT in the dark, followed by measurement of luminescence on a BMG Labtech Pherastar plate reader (Software Ver. 5.30 R3, Firmware Ver. 1.21). The data was plotted in Prism Ver 7.01 (GraphPad Software, Inc.) and fitted to a Log(inhibitor) v/s response – variable slope model in order to obtain IC50 values.

The nature of assay [2]: AlphaScreen biotin-His6 counterscreen. The note with it: AlphaScreen interference counterscreen with biotin-His6; unit inferred; DNC = data did not converge to binding model; NM = not measurable within the solubility range.
Assay [3] concerns the target T2, KDM7A(PHD) (Homo sapiens, UniProt Q6ZMT4).
T2 construct: made in house
T2 sequence (Q6ZMT4 37-88 limits assumed): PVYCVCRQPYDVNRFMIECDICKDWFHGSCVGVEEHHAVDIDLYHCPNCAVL
As to the kind of experiment: AlphaScreen displacement of H3K4me3-Bn from His-KDM7A(PHD). Particulars: AlphaScreen; 6.25 nM KDM7A(PHD) and 25 nM peptide; n ≥ 3; read-out: IC50 for displacement of H3K4me3-Bn from His-KDM7A(PHD). In kind it is binding. As for the experimental part: as §1
On the technique in general: In Alpha technology, singlet oxygen from a donor bead excites a nearby acceptor bead.

The target of assay [4] is T3, KDM7B(PHD) (Homo sapiens, UniProt Q9UPP1).
T3 construct: made in house
T3 sequence (Q9UPP1 41-92 limits assumed): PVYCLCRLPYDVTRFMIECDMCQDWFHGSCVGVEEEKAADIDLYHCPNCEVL
As to the kind of experiment: AlphaScreen displacement of H3K4me3-Bn from His-KDM7B(PHD). It counts as binding. Particulars: AlphaScreen; 12.5 nM protein and 12.5 nM peptide; n ≥ 3; read-out: IC50 for displacement of H3K4me3-Bn from His-KDM7B(PHD). On the procedure:
as §1

The target of assay [5] is T4, KDM7C(PHD) (Homo sapiens, UniProt O75151).
T4 construct: made in house
T4 sequence (O75151 5-56 limits assumed): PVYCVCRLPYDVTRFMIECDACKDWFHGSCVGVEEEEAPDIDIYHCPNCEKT
As to the kind of experiment: AlphaScreen displacement of H3K4me3-Bn from His-KDM7C(PHD). It counts as binding. Particulars: AlphaScreen; 25 nM KDM7C(PHD) and 6.25 nM peptide; n ≥ 3; read-out: IC50 for displacement of H3K4me3-Bn from His-KDM7C(PHD). On the procedure:
as §1

Assay [6] deals with KDM7A (PHD-JmjC) (Homo sapiens, UniProt Q6ZMT4). As to the kind of experiment: AlphaScreen displacement of H3K4me3-Bn from His-KDM7A(PHD-JmjC). It counts as binding. Particulars: AlphaScreen displacement of H3K4me3-Bn; n = 3; NI = No inhibition seen at 100 μM; read-out: IC50 KDM7A (PHD-JmjC) (Displacement). As for the experimental part: (§2) A dual-domain construct of KDM7A/B(PHD-JmjC), consisting of a JmjC domain in addition to the PHD-finger (Fig. 1B), was used to test for allosteric inhibition through binding at the PHD-finger.
as §1

Assay [7] deals with T5, KDM7B (PHD-JmjC) (Homo sapiens, UniProt Q9UPP1).
T5 construct: A dual-domain construct of KDM7A/B(PHD-JmjC), consisting of a JmjC domain in addition to the PHD-finger; His; made in house
As to the kind of experiment: AlphaScreen displacement of H3K4me3-Bn from His-KDM7B(PHD-JmjC). It counts as binding. The note with it: AlphaScreen displacement of H3K4me3-Bn; n = 3; NI = No inhibition seen at 100 μM; read-out: IC50 KDM7B (PHD-JmjC) (Displacement). As for the experimental part: as §2, §1

Assay [8] relates to KDM7A (PHD-JmjC). As to the kind of experiment: MALDI-TOF MS H3K9me2 demethylation assay, KDM7A(PHD-JmjC). It counts as biochemical, human. Particulars: at 100 µM, substrate H3(1–15)K9me2. As for the experimental part: Final concentrations were: 1mM ascorbate, 50 µM (NH4)2Fe(II)(SO4)2 and 200 µM 2OG. The mixture was quenched using formic acid after 10 minutes (KDM7A) or 5 minutes (KDM7B).

The target of assay [9] is T5, KDM7B (PHD-JmjC). As to the kind of experiment: MALDI-TOF MS H3K9me2 demethylation assay, KDM7B(PHD-JmjC). In kind it is biochemical. Particulars: at 100 µM; MALDI-TOF MS; substrate H3(1–5)K4me3K9me2; read-out: KDM7B (PHD-JmjC) (Catalytic), inhibition of H3K9me2 demethylation. As for the experimental part:
H3(1–15)K9me2 and H3(1–5)K4me3K9me2 were used as substrates for KDM7A(PHD-JmjC) and KDM7B(PHD-JmjC), respectively. […] For KDM7B(PHD-JmjC), inhibition was most pronounced for 1a (95%) and 2a (89%) whilst others inhibited more weakly (Table 4).
For KDM7(PHD-JmjC) assays, 2.5 µM enzyme was used, with 5 µM H3(1-15)K9me2 peptide substrate for KDM7A or H3(1-15)K4me3K9me2 for KDM7B. Final concentrations were: 1mM ascorbate, 50 µM (NH4)2Fe(II)(SO4)2 and 200 µM 2OG. The mixture was quenched using formic acid after 10 minutes (KDM7A) or 5 minutes (KDM7B).

The subject of assay [10] is KDM5A(PHD3). Also on record: method as in PMID 22994852. Particulars: HaloTag-based peptide displacement assay; read-out: IC50 for inhibition of binding of KDM5A(PHD3) to H3K4me3; cited from earlier work.

T5 sequence (Q9UPP1 37-483 limits assumed): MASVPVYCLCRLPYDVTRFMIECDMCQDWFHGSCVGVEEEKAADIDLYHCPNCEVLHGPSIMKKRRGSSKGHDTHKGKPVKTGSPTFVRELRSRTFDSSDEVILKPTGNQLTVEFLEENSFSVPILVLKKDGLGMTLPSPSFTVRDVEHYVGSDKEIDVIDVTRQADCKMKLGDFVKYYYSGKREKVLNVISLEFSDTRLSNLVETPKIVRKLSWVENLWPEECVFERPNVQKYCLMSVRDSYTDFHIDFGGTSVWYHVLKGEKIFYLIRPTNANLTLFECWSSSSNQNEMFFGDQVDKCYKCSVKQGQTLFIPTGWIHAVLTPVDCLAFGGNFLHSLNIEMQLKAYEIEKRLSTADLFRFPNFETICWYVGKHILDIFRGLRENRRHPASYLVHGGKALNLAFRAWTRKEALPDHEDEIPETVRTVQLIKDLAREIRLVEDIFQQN
Chain of KDM7A (PHD-JmjC) (Homo sapiens, UniProt Q6ZMT4) (Q6ZMT4 37-386 limits assumed): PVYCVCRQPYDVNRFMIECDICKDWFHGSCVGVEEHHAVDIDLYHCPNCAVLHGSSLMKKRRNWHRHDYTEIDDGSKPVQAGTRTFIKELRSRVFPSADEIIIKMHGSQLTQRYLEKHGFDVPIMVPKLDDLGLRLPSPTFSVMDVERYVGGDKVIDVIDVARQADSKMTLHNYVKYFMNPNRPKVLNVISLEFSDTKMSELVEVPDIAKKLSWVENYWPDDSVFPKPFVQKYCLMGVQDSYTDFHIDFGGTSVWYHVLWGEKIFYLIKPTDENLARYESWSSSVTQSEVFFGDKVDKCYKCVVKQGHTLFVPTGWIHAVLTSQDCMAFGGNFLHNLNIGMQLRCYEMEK

What is called IC50 is the concentration that gives 50% inhibition. One may read the inhibition as the percentage by which the read-out fell short of the control. On to `CCCCc1oc2ccccc2c1C(=O)c1cc(I)c(OCC[N+](C)(C)C)c(I)c1.[I-]` [WAG-003, 2-(4-(2-Butylbenzofuran-3-carbonyl)-2,6-diiodophenoxy)-N,N,N-trimethylethanaminium iodide, reference compound], for which the IC50 in assay [1] (AlphaScreen, 25 nM protein and 25 nM peptide, average ± StdDev, n ≥ 3, NM = not measurable within the solubility range, read-out: IC50 for displacement of H3K4me3-Bn from His-KDM5A(PHD3)) is 1660 ± 490 µM; in [2] it was 11300 ± 1260 µM; in assay [3], 2230 ± 790 µM; in [4], 307 ± 76 µM; in [5] it was 976 ± 146 µM; in assay [6] it was greater than 100 µM. In addition, the IC50 in assay [7] is greater than 100 µM; in [10] it was 30 to 40 µM and 30 µM. Also, in assay [1] (KDM5A(PHD3), compared with reported 30–40 µM), the “fold higher IC50 in this AlphaScreen assay than reported with the Halo-tag assay” value is greater than 50 fold. Moreover, in assay [8], the “KDM7A (PHD-JmjC) (Catalytic), inhibition of H3K9me2 demethylation” value is recorded as 17% (100 µM). Further, in assay [9], the inhibition at 100 µM is 22%.
